The assay relates to HeLa. As to the kind of experiment: Cytotoxicity against human HeLa cells. The class given is functional, cell-based.

SMILES strings stand for the structures.

For orientation: IC50 means the midpoint of a concentration-inhibition curve. High values mean weaker potency in that assay, low ones greater potency in that assay. The compound `CCOC(=O)C(C)CC(=O)C[C@@H](C)[C@H]1CC(=O)[C@@]2(C)C3=C(C(=O)[C@@H](OC(C)=O)[C@]12C)[C@@]1(C)CCC(=O)C(C)(C)[C@@H]1CC3=O` (some centres not stated) displayed an IC50 (Homo sapiens, HeLa) of 11 µM.
Consider `C/C(=C\CC[C@@H](C)[C@H]1CC[C@@]2(C)C3=C([C@@H](O)C[C@]12C)[C@@]1(C)CCC(=O)C(C)(C)[C@@H]1CC3=O)C(=O)O`, for which the IC50 (Homo sapiens, HeLa) was 11 µM.
For `C/C(=C\CC[C@@H](C)[C@H]1C[C@H](O)[C@@]2(C)C3=CC[C@H]4C(C)(C)C(=O)CC[C@]4(C)C3=CC[C@]12C)C(=O)O`, the IC50 (Homo sapiens, HeLa) was 11 µM.
Still for that read-out and setting: next, `C[C@H](CCC(=O)O)[C@H]1CC[C@@]2(C)C3=C(CC[C@]12C)[C@@]1(C)CCC(=O)C(C)(C)[C@@H]1CC3=O`: 11 µM.
Same read-out and setting: next, `C/C(=C\CC[C@@H](C)[C@H]1CC[C@@]2(C)C3=C(CC[C@]12C)[C@@]1(C)CC[C@H](O)C(C)(C)[C@@H]1CC3=O)C(=O)O`: > 300 µM; `C/C(=C\CC[C@@H](C)[C@H]1CC[C@@]2(C)C3=C([C@H](O)C[C@]12C)[C@@]1(C)CCC(=O)C(C)(C)[C@@H]1CC3=O)C(=O)O`: 101 µM; `COC(=O)C(C)CC(=O)C[C@@H](C)[C@H]1CC(=O)[C@@]2(C)C3=C(C(=O)[C@@H](OC(C)=O)[C@]12C)[C@@]1(C)CC[C@H](O)C(C)(C)[C@@H]1C[C@@H]3O` (some centres not stated): 101 µM.
For the compound `CC(=O)O[C@@H]1C(=O)C2=C([C@@H](O)C[C@H]3C(C)(C)[C@@H](O)CC[C@]23C)[C@]2(C)C(=O)C[C@H](/C(C)=C\C(=O)CC(C)C(=O)O)[C@@]12C` (some centres not stated), it took 101 µM to reach half-maximal inhibition (Homo sapiens, HeLa) (IC50).
On the same count and under the same terms, the value for `CC(CC(=O)C[C@@H](C)[C@H]1C[C@H](O)[C@@]2(C)C3=C(C(=O)C[C@]12C)[C@@]1(C)CC[C@H](O)C(C)(C)[C@@H]1C[C@@H]3O)C(=O)O` (some centres not stated) was 101 µM; that for `CC(=O)O[C@@H]1C(=O)C2=C([C@@H](O)C[C@H]3C(C)(C)C(=O)CC[C@]23C)[C@]2(C)C(=O)C[C@H](/C(C)=C\C(=O)CC(C)C(=O)O)[C@@]12C` (some centres not stated) was > 300 µM.
Regarding `CC(CC(=O)C[C@@H](C)[C@H]1CC(=O)[C@@]2(C)C3=C(C(=O)[C@@H](O)[C@]12C)[C@@]1(C)CCC(=O)C(C)(C)[C@@H]1C[C@@H]3O)C(=O)O` (some centres not stated), the IC50 (Homo sapiens, HeLa) was > 300 µM.
The same measure, in the same setting: the value for `CC(CC(=O)C[C@@H](C)[C@H]1CC(=O)[C@@]2(C)C3=C(C(=O)[C@@H](O)[C@]12C)[C@@]1(C)CCC(=O)C(C)(C)[C@@H]1CC3=O)C(=O)O` (some centres not stated) was > 300 µM; that for `CC(=O)OC1C[C@H]([C@H](C)CC/C=C(/C)C(=O)O)[C@@]2(C)CC=C3C(=CC[C@H]4C(C)(C)C(=O)CC[C@]34C)[C@]12C` (some centres not stated) was > 300 µM.
In the case of `CC(CC(=O)C[C@@H](C)[C@H]1CC(=O)[C@@]2(C)C3=C(C(=O)C[C@]12C)[C@@]1(C)CCC(=O)C(C)(C)[C@@H]1C[C@@H]3O)C(=O)O` (stereo in doubt; 10) [GANODERIC ACID D], where the note is “hela”, the IC50 turned out to be 31 µM.
Same read-out and setting: the value for `CC(CC(=O)C[C@@H](C)[C@H]1CC(=O)[C@@]2(C)C3=C(C(=O)C[C@]12C)[C@@]1(C)CCC(=O)C(C)(C)[C@@H]1C[C@@H]3O)C(=O)O` (stereo in doubt; 81) [GANODERIC ACID D] was > 300 µM.
As for `C/C(=C\C(=O)CC(C)C(=O)O)[C@H]1C[C@H](O)[C@@]2(C)C3=C(C(=O)C[C@]12C)[C@@]1(C)CCC(=O)C(C)(C)[C@@H]1C[C@@H]3O` (some centres not stated) [GANODERENIC ACID A], the IC50 (Homo sapiens, HeLa) is > 300 µM.
As for `C/C(=C\C(=O)CC(C)C(=O)O)[C@H]1CC(=O)[C@@]2(C)C3=C(C(=O)C[C@]12C)[C@@]1(C)CC[C@H](O)C(C)(C)[C@@H]1C[C@@H]3O` (some centres not stated) [GANODERENIC ACID B], where the note is “Homo sapiens, HeLa”, the IC50 was found to be 202 µM.
Take `C/C(=C\C(=O)CC(C)C(=O)O)[C@H]1CC(=O)[C@@]2(C)C3=C(C(=O)C[C@]12C)[C@@]1(C)CCC(=O)C(C)(C)[C@@H]1CC3=O` (some centres not stated) [GANODERENICACID F]: half-maximal inhibition (Homo sapiens, HeLa) (IC50) required 202 µM.
With `CC(CC(=O)C[C@@H](C)[C@H]1CC(=O)[C@@]2(C)C3=C(C(=O)C[C@]12C)[C@@]1(C)CC[C@H](O)C(C)(C)[C@@H]1CC3=O)C(=O)O` (some centres not stated) [GANODERIC ACID AM1], under “Homo sapiens, HeLa”, 202 µM corresponded to half-maximal inhibition (IC50).
Same read-out and setting: the value for `C[C@H](CC(=O)C[C@@H](C)[C@H]1C[C@H](O)[C@@]2(C)C3=C(C(=O)C[C@]12C)[C@@]1(C)CCC(=O)C(C)(C)[C@@H]1C[C@@H]3O)C(=O)O` [GANODERIC ACID A] was > 300 µM.
`COC(=O)[C@H](C)CC(=O)C[C@@H](C)[C@H]1CC(=O)[C@@]2(C)C3=C(C(=O)C[C@]12C)[C@@]1(C)CC[C@H](O)C(C)(C)[C@@H]1C[C@@H]3O` [GANODERIC ACID B METHYL ESTER]: the IC50 (Homo sapiens, HeLa) is 101 µM.
With `CC(CC(=O)C[C@@H](C)[C@H]1CC(=O)[C@@]2(C)C3=C(C(=O)C[C@]12C)[C@@]1(C)CC[C@H](O)C(C)(C)[C@@H]1C[C@@H]3O)C(=O)O` (some centres not stated) [GANODERIC ACID B], the IC50 (Homo sapiens, HeLa) was found to be 202 µM.
Same read-out and setting: the value for `C[C@H](CC(=O)C[C@@H](C)[C@H]1CC(=O)[C@@]2(C)C3=C(C(=O)C[C@]12C)[C@@]1(C)CCC(=O)C(C)(C)[C@@H]1CC3=O)C(=O)O` [GANODERIC ACID E] was 101 µM; that for `CC(=O)O[C@@H]1C(=O)C2=C(C(=O)C[C@H]3C(C)(C)C(=O)CC[C@]23C)[C@]2(C)C(=O)C[C@H]([C@H](C)CC(=O)CC(C)C(=O)O)[C@@]12C` (some centres not stated) [GANODERIC ACID F] was > 300 µM; that for `CC(CC(=O)C[C@@H](C)[C@H]1CC(=O)[C@@]2(C)C3=C(C(=O)[C@@H](O)[C@]12C)[C@@]1(C)CC[C@H](O)C(C)(C)[C@@H]1C[C@@H]3O)C(=O)O` (some centres not stated) [GANODERIC ACID G] was 101 µM.
Same read-out and setting: the value for `CC(=O)O[C@@H]1C(=O)C2=C(C(=O)C[C@H]3C(C)(C)[C@@H](O)CC[C@]23C)[C@]2(C)C(=O)C[C@H]([C@H](C)CC(=O)CC(C)C(=O)O)[C@@]12C` (some centres not stated) [GANODERIC ACID H] was > 300 µM; that for `CC(CC(=O)C[C@@H](C)[C@H]1C[C@H](O)[C@@]2(C)C3=C(C(=O)C[C@]12C)[C@@]1(C)CCC(=O)C(C)(C)[C@@H]1CC3=O)C(=O)O` (some centres not stated) [GANODERIC ACID J] was > 300 µM; that for `CC(=O)O[C@@H]1C(=O)C2=C([C@@H](O)C[C@H]3C(C)(C)[C@@H](O)CC[C@]23C)[C@]2(C)C(=O)C[C@H]([C@H](C)CC(=O)CC(C)C(=O)O)[C@@]12C` (some centres not stated) [GANODERIC ACID K] was > 300 µM.
Still for that read-out and setting: the value for `C/C(=C\CC[C@@H](C)[C@H]1CC[C@@]2(C)C3=CC[C@H]4C(C)(C)[C@@H](O)CC[C@]4(C)C3=CC[C@]12C)C(=O)O` [GANODERIC ACID Y] was 11 µM; that for `C/C(=C\CC[C@@H](C)[C@H]1CC[C@@]2(C)C3=CC[C@H]4C(C)(C)[C@@H](O)CC[C@]4(C)C3=CC[C@]12C)CO` [GANODEROL B] was 101 µM; that for `CC(CC(=O)C[C@@H](C)[C@H]1C[C@H](O)[C@@]2(C)C3=C(C(=O)C[C@]12C)[C@@]1(C)CCC(=O)C(C)(C)[C@@H]1CC3)C(=O)O` (some centres not stated) [GANOLUCIDIC ACID A] was 101 µM.
`C/C(=C\CC[C@@H](C)[C@H]1C[C@H](O)[C@@]2(C)C3=C(C(=O)C[C@]12C)[C@@]1(C)CCC(=O)C(C)(C)[C@@H]1CC3)C(=O)O` [GANOLUCIDIC ACID E]: for the setting “Homo sapiens, HeLa”, the IC50 stood at 11 µM.

For the origin of these results see ChEMBL document CHEMBL2203027, “Lanostanoids from fungi: a group of potential anticancer compounds” (J Nat Prod, 2012).
